In US8252337B2, “Charged mesoporous silica nanoparticle-based drug delivery system for controlled release and enhanced bioavailability” (National Health Research Institutes, priority 2008, dated 2012):

Assay: Saturated aqueous sulfasalazine solution
Format: physicochemical
Conditions: in H2O
Method: Sulfasalazine-Loaded MSN-TA Samples: A saturated aqueous sulfasalazine solution was prepared by dissolving 0.5 g of sulfasalazine in 1 L of H2O, stirred for 6 h, and filtered through a […] cellulose acetate membrane to remove the residual solids. […] Sulfasalazine was adsorbed onto MSN-TA samples by adding 10 mg of MSN-TA samples into 10 mL of the above saturated sulfasalazine solution. The mixture was stirred at 800 rpm for 4 h. The particles were then washed with deionized water and centrifuged for 20 min at 12 000 rpm. The supernatant was analyzed with a UV-Vis spectrometer. The amount of Sulfasalazine adsorbed onto nanoparticles was determined by measuring the decrease in absorption at 360 nm. The loading percentage of sulfasalazine onto MSN-TA-4 was about 1.7%.

Structure (SMILES): O=C(O)c1cc(/N=N/c2ccc(S(=O)(=O)Nc3ccccn3)cc2)ccc1O [sulfasalazine]
- pH of saturated sulfasalazine solution: 5.4
